Reference: PubChem BioAssay AID248 (DTP/NCI, 2004)
Several values for one entry are separate records, joined by “and”; a condition that tells them apart may be missing. Identical values can stand only once. Toxic doses and inconclusive results are not listed.

System: L1210 leukemia ip in BDF1 mice, survival T/C
Assay: NCI In Vivo Anticancer Drug Screen. Data for tumor model L1210 Leukemia (intraperitoneal) in B6D2F1 (BDF1) mice
Details: endpoint: mean survival time, higher = longer survival
Summary of the method: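 Transplanted-tumor mice were given test agent; controls received vehicle only. Survival readings from the two groups were divided (treated over control).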

[1] = dose: 100.0 mg/kg/injection, schedule: Q01DX009 (ip), vehicle: saline with Tween-80
[2] = dose: 200.0 mg/kg/injection, schedule: Q01DX009 (ip), vehicle: saline with Tween-80
[3] = dose: 100.0 mg/kg/injection, schedule: Q01DX009 (ip), vehicle: Klucel (hydroxypropylcellulose) (HPC)
[4] = dose: 200.0 mg/kg/injection, schedule: Q01DX009 (ip), vehicle: Klucel (hydroxypropylcellulose) (HPC)
[5] = dose: 400.0 mg/kg/injection, schedule: Q01DX009 (ip), vehicle: saline with Tween-80
[6] = dose: 100.0 mg/kg/injection, schedule: Q04DX002 (ip), vehicle: saline with Tween-80
[7] = dose: 200.0 mg/kg/injection, schedule: Q04DX002 (ip), vehicle: saline with Tween-80
[8] = dose: 400.0 mg/kg/injection, schedule: Q04DX002 (ip), vehicle: saline with Tween-80
[9] = dose: 25.0 mg/kg/injection, schedule: Q01DX009 (ip), vehicle: Klucel (hydroxypropylcellulose) (HPC)
[10] = dose: 50.0 mg/kg/injection, schedule: Q01DX009 (ip), vehicle: Klucel (hydroxypropylcellulose) (HPC)
[11] = dose: 12.5 mg/kg/injection, schedule: Q01DX009 (ip), vehicle: saline
[12] = dose: 100.0 mg/kg/injection, schedule: Q04DX002 (ip), vehicle: Klucel (hydroxypropylcellulose) (HPC)
[13] = dose: 200.0 mg/kg/injection, schedule: Q04DX002 (ip), vehicle: Klucel (hydroxypropylcellulose) (HPC)
[14] = dose: 400.0 mg/kg/injection, schedule: Q04DX002 (ip), vehicle: Klucel (hydroxypropylcellulose) (HPC)
[15] = dose: 100.0 mg/kg/injection, schedule: Q04DX003 (ip), vehicle: saline with Tween-80
[16] = dose: 200.0 mg/kg/injection, schedule: Q04DX003 (ip), vehicle: saline with Tween-80
[17] = dose: 400.0 mg/kg/injection, schedule: Q04DX003 (ip), vehicle: saline with Tween-80
[18] = dose: 100.0 mg/kg/injection, schedule: Q04DX003 (ip), vehicle: saline
[19] = dose: 200.0 mg/kg/injection, schedule: Q04DX003 (ip), vehicle: saline

Cc1cc2c(cc1C)C1(c3ccccc3)OC1(c1ccccc1)C2=O (stereo not given)
T/C (dose: 100.0 mg/kg/injection, schedule: Q01DX001 (ip), vehicle: saline with Tween-80): 95 % of control | T/C (dose: 200.0 mg/kg/injection, schedule: Q01DX001 (ip), vehicle: saline with Tween-80): 88 % of control | T/C (dose: 400.0 mg/kg/injection, schedule: Q01DX001 (ip), vehicle: saline with Tween-80): 92 % of control

COc1cc(C)ccc1Cl
T/C (dose: 50.0 mg/kg/injection, schedule: Q01DX009 (ip), vehicle: saline with Tween-80): 107 % of control | T/C [1]: 113 % of control | T/C [2]: 110 % of control

CN(C(=O)Nc1cccc(C(F)(F)F)c1)c1ccccc1
T/C [3]: 98 % of control | T/C [4]: 96 % of control | T/C (dose: 400.0 mg/kg/injection, schedule: Q01DX009 (ip), vehicle: Klucel (hydroxypropylcellulose) (HPC)): 101 % of control

NNC(=O)CCC(=O)NN
T/C [1]: 100 % of control | T/C [2]: 99 % of control | T/C [5]: 100 % of control

CCN(CC)N=Nc1ccc(S(=O)(=O)N(C)C)cc1
T/C [6]: 104 % of control | T/C [7]: 97 % of control | T/C [8]: 115 % of control

Cc1ccccc1SC(=O)Nc1cccc(Cl)c1Cl
T/C [9]: 112 % of control | T/C [10]: 104 % of control | T/C [3]: 94 % of control and 103 % of control | T/C [4]: 87 % of control

CCCC[P+](c1ccccc1)(c1ccccc1)c1ccccc1
T/C (dose: 6.25 mg/kg/injection, schedule: Q04DX003 (ip), vehicle: saline): 107 % of control | T/C (dose: 12.5 mg/kg/injection, schedule: Q01DX009 (ip), vehicle: Klucel (hydroxypropylcellulose) (HPC)): 114 % of control | T/C [11]: 113 % of control | T/C (dose: 12.5 mg/kg/injection, schedule: Q04DX003 (ip), vehicle: saline): 107 % of control | T/C [9]: 112 % of control | T/C (dose: 25.0 mg/kg/injection, schedule: Q01DX009 (ip), vehicle: saline): 115 % of control | T/C (dose: 25.0 mg/kg/injection, schedule: Q04DX003 (ip), vehicle: saline): 105 % of control | T/C [10]: 109 % of control | T/C (dose: 50.0 mg/kg/injection, schedule: Q04DX003 (ip), vehicle: saline): 104 % of control

CCC1COC(=S)N1 (stereo not given)
T/C (dose: 6.25 mg/kg/injection, schedule: Q01DX001 (ip), vehicle: Klucel (hydroxypropylcellulose) (HPC)): 93 % of control | T/C (dose: 6.25 mg/kg/injection, schedule: Q01DX009 (ip), vehicle: saline): 91 % of control | T/C (dose: 12.5 mg/kg/injection, schedule: Q01DX001 (ip), vehicle: Klucel (hydroxypropylcellulose) (HPC)): 108 % of control | T/C [11]: 105 % of control | T/C (dose: 25.0 mg/kg/injection, schedule: Q01DX001 (ip), vehicle: Klucel (hydroxypropylcellulose) (HPC)): 100 % of control | T/C (dose: 25.0 mg/kg/injection, schedule: Q04DX002 (ip), vehicle: saline with Tween-80): 103 % of control

CC1=NN(c2ccccc2)C(=O)/C1=C\c1ccccc1
T/C [3]: 97 % of control | T/C [4]: 95 % of control

COc1ccc(S(=O)(=O)Nc2cc(Cl)ccc2Cl)cc1
T/C [1]: 92 % of control | T/C [2]: 103 % of control | T/C [5]: 95 % of control

O=C1OCC/C1=C\CCCCCCCCC1CO1 (stereo not given)
T/C (dose: 25.0 mg/kg/injection, schedule: Q04DX002 (ip), vehicle: saline): 94 % of control | T/C (dose: 50.0 mg/kg/injection, schedule: Q04DX002 (ip), vehicle: saline): 102 % of control | T/C (dose: 100.0 mg/kg/injection, schedule: Q04DX002 (ip), vehicle: saline): 94 % of control and 101 % of control

OCCOc1ccccc1
T/C [6]: 100 % of control | T/C [7]: 95 % of control | T/C [8]: 91 % of control

C=C(CSCC(N)=O)c1ccccc1
T/C [12]: 97 % of control | T/C [13]: 97 % of control | T/C [14]: 94 % of control

C[C@H](CCC(=O)O)[C@H]1CC[C@H]2[C@@H]3[C@H](O)C[C@@H]4C[C@H](O)CC[C@]4(C)[C@H]3C[C@H](O)[C@]12C (tested in a mixture with another compound)
T/C (dose: 37.5 mg/kg/injection, schedule: Q01DX009 (ip), vehicle: saline): 107 % of control | T/C (dose: 50.0 mg/kg/injection, schedule: Q04DX003 (ip), vehicle: other): 105 % of control | T/C (dose: 75.0 mg/kg/injection, schedule: Q01DX009 (ip), vehicle: saline): 111 % of control | T/C (dose: 77.0 mg/kg/injection, schedule: Q01DX Z (ip), vehicle: methylcellulose (MC)): 105 % of control | T/C (dose: 80.0 mg/kg/injection, schedule: Q01DX009 (ip), vehicle: other): 97 % of control | T/C (dose: 80.0 mg/kg/injection, schedule: Q01DX009 (ip), vehicle: saline): 115 % of control | T/C (dose: 80.0 mg/kg/injection, schedule: Q01DX Z (ip), vehicle: saline): 111 % of control | T/C (dose: 100.0 mg/kg/injection, schedule: Q01DX001 (ip), vehicle: alcohol): 96 % of control | T/C (dose: 100.0 mg/kg/injection, schedule: Q04DX003 (ip), vehicle: other): 97 % of control | T/C (dose: 116.0 mg/kg/injection, schedule: Q01DX Z (ip), vehicle: methylcellulose (MC)): 115 % of control | T/C (dose: 120.0 mg/kg/injection, schedule: Q01DX009 (ip), vehicle: other): 118 % of control | T/C (dose: 120.0 mg/kg/injection, schedule: Q01DX Z (ip), vehicle: saline): 152 % of control | T/C (dose: 150.0 mg/kg/injection, schedule: Q01DX009 (ip), vehicle: saline): 88 % of control | T/C (dose: 180.0 mg/kg/injection, schedule: Q01DX009 (ip), vehicle: other): 115 % of control | T/C (dose: 180.0 mg/kg/injection, schedule: Q01DX Z (ip), vehicle: methylcellulose (MC)): 115 % of control | T/C (dose: 180.0 mg/kg/injection, schedule: Q01DX Z (ip), vehicle: saline): 179 % of control | T/C (dose: 198.0 mg/kg/injection, schedule: Q04DX003 (ip), vehicle: other): 115 % of control | T/C (dose: 200.0 mg/kg/injection, schedule: Q01DX001 (ip), vehicle: alcohol): 92 % of control | T/C (dose: 200.0 mg/kg/injection, schedule: Q04DX003 (ip), vehicle: other): 105 % of control | T/C (dose: 263.0 mg/kg/injection, schedule: Q01DX Z (ip), vehicle: methylcellulose (MC)): 96 % of control | T/C (dose: 270.0 mg/kg/injection, schedule: Q01DX Z (ip), vehicle: saline): 114 % of control

C=CCc1c(F)c(F)c(F)c(F)c1F
T/C [15]: 97 % of control | T/C [16]: 95 % of control | T/C [17]: 98 % of control

FC(F)(F)c1cccc(NC(=S)Nc2ccccc2S)c1
T/C [1]: 103 % of control | T/C [6]: 93 % of control | T/C [2]: 98 % of control | T/C [7]: 96 % of control | T/C [5]: 124 % of control | T/C [8]: 101 % of control

CCCCCCCCCCCCCCCCOc1ccccc1/C=N/O
T/C [15]: 94 % of control | T/C [16]: 95 % of control | T/C [17]: 90 % of control

COc1ccc(OC)c(-n2cccc2/C=N/NC(N)=O)c1
T/C [12]: 97 % of control | T/C [13]: 108 % of control | T/C [14]: 93 % of control

Cc1n[nH]c(=S)n1C
T/C [18]: 108 % of control | T/C [19]: 113 % of control

CCOC(=O)c1c(C)[nH]oc1=O
T/C [18]: 111 % of control | T/C [19]: 102 % of control | T/C (dose: 400.0 mg/kg/injection, schedule: Q04DX003 (ip), vehicle: saline): 96 % of control

CC(C)CCOC(OCCC(C)C)OCCC(C)C
T/C (dose: 100.0 mg/kg/injection, schedule: Q01DX001 (ip), vehicle: saline): 100 % of control | T/C (dose: 200.0 mg/kg/injection, schedule: Q01DX001 (ip), vehicle: saline): 97 % of control | T/C (dose: 400.0 mg/kg/injection, schedule: Q01DX001 (ip), vehicle: saline): 105 % of control

Ic1nc(I)c(I)[nH]1
T/C [1]: 102 % of control | T/C [2]: 105 % of control | T/C [5]: 102 % of control
